Experimental data taken from US20150011751A1, “NOVEL TRIAZINE DERIVATIVE” (CARNA BIOSCIENCES, INC., priority 2012, published 2015).

The compounds below were run against Dephosphorylated BTK (Homo sapiens, UniProt Q06187) (assay: Test of activity inhibition against dephosphorylated BTK (mobility shift assay)).
Chain of Dephosphorylated BTK (Q06187 whole entry): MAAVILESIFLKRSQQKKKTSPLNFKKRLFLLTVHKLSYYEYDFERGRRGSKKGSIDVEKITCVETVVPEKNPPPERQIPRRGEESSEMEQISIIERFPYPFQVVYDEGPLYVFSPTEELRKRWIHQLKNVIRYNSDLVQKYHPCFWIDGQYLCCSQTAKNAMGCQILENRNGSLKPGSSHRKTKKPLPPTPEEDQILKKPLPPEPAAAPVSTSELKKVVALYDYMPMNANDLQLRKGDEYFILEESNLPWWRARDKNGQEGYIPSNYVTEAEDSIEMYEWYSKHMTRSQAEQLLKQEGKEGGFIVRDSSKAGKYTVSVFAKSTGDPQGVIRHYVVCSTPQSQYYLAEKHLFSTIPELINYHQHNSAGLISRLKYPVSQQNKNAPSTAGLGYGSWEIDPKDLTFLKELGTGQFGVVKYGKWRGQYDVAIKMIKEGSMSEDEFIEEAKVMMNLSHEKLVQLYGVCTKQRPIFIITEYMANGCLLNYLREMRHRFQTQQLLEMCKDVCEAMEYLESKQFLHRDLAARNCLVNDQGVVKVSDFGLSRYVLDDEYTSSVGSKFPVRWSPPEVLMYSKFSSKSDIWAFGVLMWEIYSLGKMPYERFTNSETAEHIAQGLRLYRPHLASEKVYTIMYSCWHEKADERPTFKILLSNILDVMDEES
In the case of Nc1nc(Nc2ccc(O)cc2)nc(-c2cccc(N3CCc4cc(C5CC5)cc(F)c4C3=O)c2CO)n1 [Example 182, 2-(3-{4-Amino-6-[(4-hy-droxyphenyl)amino]-1,3,5-triazin-2-yl}-2-(hydroxymethyl)phenyl)-6-cyclopropyl-8-fluoro-3,4-dihydro-isoquinolin-1(2H)-one], the IC50 is reported as 3.6 nM.
For Nc1nc(Nc2ccc(N3CCCC(O)C3)cc2)nc(-c2cccc(N3CCc4cc(C5CC5)cc(F)c4C3=O)c2CO)n1 (stereo not shown) [Example 53, 2-[3-(4-Amino-6-{[4-(3-hydroxypiperidin-1-yl)phenyl]amino}-1,3,5-triazin-2-yl)-2-(hy-droxymethyl)phenyl]-6-cyclopropyl-8-fluoro-3,4-dihydroisoquinolin-1(2H)-one], the IC50 was 1.8 nM.
Work on Cc1cc(Nc2nc(N)nc(-c3cccc(NC(=O)c4ccc(C(C)(C)C)cc4)c3CO)n2)cc(C)c1O [Example 123, N-(3-{4-Amino-6-[(4-hy-droxy-3,5-dimethyl-phenyl)amino]-1,3,5-tri-azin-2-yl}-2-(hydroxy-methyl)phenyl)-4-(tert-butyl)benzamide] yielded an IC50 of 1.4 nM.
In the case of CC(C)(C)c1cc2c(s1)C(=O)N(c1cccc(-c3nc(N)nc(Nc4ccc(CN5CCOCC5)cc4)n3)c1CO)C2 [Example 77, 5-[3-(4-Amino-6-{[4-(morpho-linomethyl)phe-nyl]amino}-1,3,5-triazin-2-yl)-2-(hydroxymeth-yl)phenyl]-2-(tert-butyl)-4H-thieno[2,3-c]pyrrol-6(5H)-one], the IC50 is reported as 3.4 nM.
Compound Nc1nc(Nc2cn[nH]c2)nc(-c2cccc(N3CCc4cc(C5CC5)cc(F)c4C3=O)c2CO)n1 [Example 195, 2-(3-{4-[(1H-Pyrazol-4-yl)amino]-6-amino-1,3,5-triazin-2-yl}-2-(hydroxymethyl)phenyl)-6-cyclopropyl-8-fluoro-3,4-dihydro-isoquinolin-1(2H)-one] has an IC50 of 0.8 nM.
In the case of CC(C)(C)c1cc2c(s1)C(=O)N(c1cccc(-c3nc(N)nc(Nc4ccc(N5CCOCC5)cc4)n3)c1CO)C2 [Example 73, 5-(3-{4-Amino-6-[(4-morpho-linophenyl)amino]-1,3,5-triazin-2-yl}-2-(hydroxymethyl)phe-nyl)-2-(tert-butyl)-4H-thieno[2,3-c]pyrrol-6(5H)-one], the IC50 is reported as 1.3 nM.
In the case of CC(C)(C)c1ccc(C(=O)Nc2cccc(-c3nc(N)nc(Nc4ccc(N5CCS(=O)(=O)CC5)cc4)n3)c2CO)cc1 [Example 124, N-[3-(4-Amino-6-{[4-(1,1-dioxidothiomorpho-lino)phenyl]amino}-1,3,5-triazin-2-yl)-2-(hy-droxymethyl)phenyl]-4-(tert-butyl)benzamide], the IC50 is reported as 0.5 nM.
For Cc1c(NC(=O)c2ccc(C(C)(C)C)cc2)cccc1-c1nc(N)nc(Nc2ccc(N3CCOC(CO)C3)cc2)n1 (stereo not shown) [Example 92, N-{3-[4-Amino-6-({4-[2-(hydroxymethyl)morpho-lin]phenyl}amino)-1,3,5-triazin-2-yl]-2-methylphenyl}-4-(tert-butyl)benzamide], the IC50 was 0.9 nM.
For CC(C)(O)Cn1cc(Nc2nc(N)nc(-c3cccc(N4CCc5cc(C6CC6)cc(F)c5C4=O)c3CO)n2)cn1 [Example 278, 2-[3-(4-Amino-6-{[1-(2-hydroxy-2-methylpro-pyl)-1H-pyrazol-4-yl]amino}-1,3,5-triazin-2-yl)-2-(hydroxymethyl)phenyl]-6-cyclopropyl-8-fluoro-3,4-dihydro-isoquinolin-1(2H)-one], the IC50 was 2.2 nM.
In the case of Cn1cc(Nc2nc(N)nc(-c3cccc(N4CCc5cc(C6CC6)cc(F)c5C4=O)c3CO)n2)cc1C#N [Example 269, 4-({4-Amino-6-[3-(6-cyclo-propyl-8-fluoro-1-oxo-3,4-dihydroisoquino-lin-2(1H)-yl)-2-(hy-droxymethyl)phenyl]-1,3,5-triazin-2-yl}ami-no)-1-methyl-1H-pyrrole-2-carbonitrile], the IC50 is reported as 0.8 nM.
Cc1c(NC(=O)c2ccc(C(C)(C)C)cc2)cccc1-c1nc(N)nc(Nc2ccc(N3CCN(CCO)CC3)cc2)n1 [Example 93, N-{3-[4-Amino-6-({4-[4-(2-hydroxyethyl)piperazin-1-yl]phenyl}ami-no)-1,3,5-triazin-2-yl]-2-methylphenyl}-4-(tert-butyl)benzamide] was tested, and the IC50 was 1.3 nM.
Nc1nc(Nc2cnn(CC(F)F)c2)nc(-c2cccc(N3CCc4cc(C5CC5)cc(F)c4C3=O)c2CO)n1 [Example 275, 2-[3-(4-Amino-6-{[1-(2,2-difluoroethyl)-1H-pyrazol-4-yl]amino}-1,3,5-triazin-2-yl)-2-(hydroxymethyl)phenyl]-6-cyclopropyl-8-fluoro-3,4-dihydroisoquinolin-1(2H)-one] was tested, and the IC50 was 1.7 nM.
For CC(C)(C)c1ccc(C(=O)Nc2cccc(-c3nc(N)nc(Nc4ccc5nc[nH]c5c4)n3)c2CO)cc1 [Example 144, N-(3-{4-[(1H-Benzo[d]imidazol-6-yl)amino]-6-amino-1,3,5-triazin-2-yl}-2-(hydroxymeth-yl)phenyl)-4-(tert-butyl)benzamide], the IC50 was 1.9 nM.
Compound CC(C)(C)n1cc(Nc2nc(N)nc(-c3cccc(N4CCc5cc(C6CC6)cc(F)c5C4=O)c3CO)n2)cn1 [Example 241, 2-[3-(4-Amino-6-{[1-(tert-butyl)-1H-pyrazol-4-yl]amino}-1,3,5-tri-azin-2-yl)-2-(hydroxy-methyl)phenyl]-6-cyclo-propyl-8-fluoro-3,4-dihydroisoquinolin-1(2H)-one] has an IC50 of 0.6 nM.
Compound CC(=O)OCc1c(NC(=O)c2ccc(C(C)(C)C)cc2)cccc1-c1nc(N)nc(Nc2ccc(O)cc2)n1 [Example 110, 2-{4-Amino-6-[(4-hydroxy-phenyl)amino]-1,3,5-triazin-2-yl}-6-[4-(tert-butyl)benzamido] benzyl acetate] has an IC50 of 17.9 nM.
With Nc1nc(Nc2cccc(Cn3cncn3)c2)nc(-c2cccc(N3CCc4cc(C5CC5)cc(F)c4C3=O)c2CO)n1 [Example 51, 2-{3-[4-({3-[(1H-1,2,4-Triazol-1-yl)methyl]phenyl}amino)-6-amino-1,3,5-triazin-2-yl]-2-(hydroxymethyl)phe-nyl}-6-cyclopropyl-8-fluoro-3,4-dihydroiso-quinolin-1(2H)-one] the IC50 was 2 nM.
Cc1cc(Nc2nc(N)nc(-c3cccc(N4CCc5cc(C6CC6)cc(F)c5C4=O)c3CO)n2)n[nH]1 [Example 205, 2-(3-{4-Amino-6-[(5-meth-yl-1H-pyrazol-3-yl)amino]-1,3,5-triazin-2-yl}-2-(hydroxymeth-yl)phenyl)-6-cyclopro-pyl-8-fluoro-3,4-dihy-droisoquinolin-1(2H)-one] showed an IC50 of 9.9 nM.
CC(C)(C)OC(=O)Nc1ccc(Nc2nc(N)nc(-c3cccc(NC(=O)c4ccc(C(C)(C)C)cc4)c3CO)n2)cc1 [Example 120, tert-Butyl {4-[(4-amino-6-{3-[4-(tert-butyl)benzamido]-2-(hydroxymethyl)phe-nyl}-1,3,5-triazin-2-yl)amino]phenyl}carbamate] showed an IC50 of 5.5 nM.
Work on Cc1c(NC(=O)c2ccc(C(C)(C)C)cc2)cccc1-c1ncnc(Nc2ccc(CN3CCOCC3)cc2)n1 [Example 25, 4-(tert-Butyl)-N-[2-meth-yl-3-(4-{[4-(morpho-linomethyl)phenyl]ami-no}-1,3,5-triazin-2-yl)phenyl]benzamide] yielded an IC50 of 3.5 nM.
In the case of Cn1cc(Nc2nc(N)nc(-c3cccc(N4CCc5cc(C6CC6)cc(F)c5C4=O)c3CO)n2)cc1C(N)=O [Example 251, 4-({4-Amino-6-[3-(6-cyclo-propyl-8-fluoro-1-oxo-3,4-dihydroisoquino-lin-2(1H)-yl)-2-(hydroxy-methyl)phenyl]-1,3,5-triazin-2-yl}ami-no)-1-methyl-1H-pyr-role-2-carboxamide], the IC50 is reported as 0.4 nM.
In the case of CCN(CC)CCOc1ccc(Nc2nc(N)nc(-c3cccc(NC(=O)c4ccc(C(C)(C)C)cc4)c3CO)n2)cc1 [Example 159, N-{3-[4-Amino-6-({4-[2-(diethylamino)ethoxy]phenyl}amino)-1,3,5-triazin-2-yl]-2-(hy-droxymethyl)phenyl}-4-(tert-butyl)benzamide], the IC50 is reported as 5.9 nM.
CC(C)(C)c1ccc(C(=O)Nc2cccc(-c3nc(N)nc(Nc4ccc(OCCCO)cc4)n3)c2CO)cc1 [Example 200, N-[3-(4-Amino-6-{[4-(3-hydroxypropoxy)phe-nyl]amino}-1,3,5-triazin-2-yl)-2-(hydroxymeth-yl)phenyl]-4-(tert-butyl)benzamide] was tested, and the IC50 was 0.8 nM.
Cc1c(NC(=O)c2ccc(C(C)(C)C)cc2)cccc1-c1nc(N)nc(Nc2ccc(CN3CCOCC3)cc2)n1 [Example 38, N-[3-(4-Amino-6-{[4-(mor-pholinomethyl)phe-nyl]amino}-1,3,5-triazin-2-yl)-2-methylphe-nyl]-4-(tert-butyl)benz-amide] was tested, and the IC50 was 1.2 nM.
In the case of Nc1nc(Nc2ccc(N3CCOC(CO)C3)cc2)nc(-c2cccc(NC(=O)c3cc4c(s3)CCCC4)c2CO)n1 (stereo not shown) [Example 127, N-{3-[4-Amino-6-({4-[2-(hydroxymethyl)morpho-lino]phenyl}amino)-1,3,5-triazin-2-yl]-2-(hydroxymethyl)phenyl}-4,5,6,7-tetrahydro-benzo[b]thiophene-2-carboxamide], the IC50 is reported as 0.5 nM.
In the case of Nc1nc(Nc2ccc(Cc3nnn[nH]3)cc2)nc(-c2cccc(N3CCc4cc(C5CC5)cc(F)c4C3=O)c2CO)n1 [Example 198, 2-{3-[4-({4-[(1H-Tetra-zol-5-yl)methyl]phe-nyl}amino)-6-amino-1,3,5-triazin-2-yl]-2-(hy-droxymethyl)phenyl}-6-cyclopropyl-8-fluoro-3,4-dihydroisoquinolin-1(2H)-one], the IC50 is reported as 3.7 nM.
For COCCOc1ccc(Nc2nc(N)nc(-c3cccc(NC(=O)c4cc5c(s4)CCCC5)c3CO)n2)cc1 [Example 134, N-[3-(4-Amino-6-{[4-(2-methoxyethoxy)phenyl]amino}-1,3,5-triazin-2-yl)-2-(hydroxymeth-yl)phenyl]-4,5,6,7-tetra-hydrobenzo[b]thio-phene-2-carboxamide], the IC50 was 0.9 nM.
Work on Nc1nc(Nc2ccc(Cn3cccn3)cc2)nc(-c2cccc(N3CCc4cc(C5CC5)cc(F)c4C3=O)c2CO)n1 [Example 50, 2-{3-[4-({4-[(1H-Pyra-zol-1-yl)methyl]phenyl}amino)-6-amino-1,3,5-triazin-2-yl]-2-(hy-droxymethyl)phenyl}-6-cyclopropyl-8-fluoro-3,4-dihydroisoquino-lin-1(2H)-one] yielded an IC50 of 1 nM.
For CC(C)(C)c1ccc(C(=O)Nc2cccc(-c3nc(N)nc(Nc4ccc(Cn5cccn5)cc4)n3)c2CO)cc1 [Example 160, N-{3-[4-({4-[(1H-Pyra-zol-1-yl)methyl]phenyl}amino)-6-amino-1,3,5-triazin-2-yl]-2-(hy-droxymethyl)phenyl}-4-(tert-butyl)benzamide], the IC50 was 0.8 nM.
